Measured values published in paper PMC5095285, “The fungal-specific β-glucan-binding lectin FGB1 alters cell-wall composition and suppresses glucan-triggered immunity in plants” (Nature Communications, 2016).

Molecular target: T1, FGB1 (Serendipita indica, UniProt G4TDB9)
T1 construct: gene PIIN_03211; native secreted mature protein purified from P. indica culture filtrate, signal peptide removed; precursor 104 residues; 6,219 Da, non-glycosylated, four disulfide bridges; no tag
Experiment: isothermal titration calorimetry (VP-ITC)
Format: binding
Details: in water, 20 °C; single-site model, N=0.854±0.243; printed error exceeds the value (likely exponent misprint); read-out: K (converted)
Source text: isothermal titration calorimetry (VP-ITC) on FGB1 | The titration of gentiobiose to FGB1 was fitted to a single-side-binding model

T1 sequence (G4TDB9 entry or part of it): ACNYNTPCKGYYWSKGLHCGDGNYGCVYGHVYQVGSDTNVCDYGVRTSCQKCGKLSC

For OC[C@H]1O[C@@H](OC[C@H]2OC(O)[C@H](O)[C@@H](O)[C@@H]2O)[C@H](O)[C@@H](O)[C@@H]1O (stereo partly shown) [gentiobiose], the Kd was 11.4 µM.
